{"source": "patent US11498899B2", "about": "“Nitrone herbicides” (FMC Corporation, priority 2016, dated 2022)", "key": {"[1]": {"tested_on": "foxtail, giant (giant foxtail, Setaria faberii)", "experiment": "Test A preemergence, visual injury rating 0-100", "format": "in vivo"}, "kochia (Kochia scoparia) [2]": {"tested_on": "kochia (Kochia scoparia)", "experiment": "Test A preemergence, visual injury rating 0-100", "format": "in vivo"}, "[3]": {"tested_on": "pigweed (Amaranthus retroflexus)", "experiment": "Test A preemergence, visual injury rating 0-100", "format": "in vivo"}, "[4]": {"tested_on": "ragweed (common ragweed, Ambrosia elatior)", "experiment": "Test A preemergence, visual injury rating 0-100", "format": "in vivo"}, "[5]": {"tested_on": "ryegrass, Italian (Italian ryegrass, Lolium multiflorum)", "experiment": "Test A preemergence, visual injury rating 0-100", "format": "in vivo", "settings": "500 g ai/ha"}, "[6]": {"tested_on": "barnyardgrass (Echinochloa crus-galli)", "experiment": "Test B flooded paddy test, visual rating 0-100", "settings": "Flood, 250 g ai/ha, applied to paddy water, rated after 13 to 15 days"}, "[7]": {"tested_on": "blackgrass (Alopecurus myosuroides)", "experiment": "Test A postemergence, visual injury rating 0-100", "format": "in vivo", "settings": "0 to 100 scale"}, "[8]": {"tested_on": "galium (catchweed bedstraw, Galium aparine)", "experiment": "Test A postemergence, visual injury rating 0-100", "format": "in vivo", "settings": "0 to 100 scale"}, "[9]": {"tested_on": "foxtail, giant (giant foxtail, Setaria faberii)", "experiment": "Test A postemergence, visual injury rating 0-100", "format": "in vivo", "settings": "0 to 100 scale"}, "kochia (Kochia scoparia) [10]": {"tested_on": "kochia (Kochia scoparia)", "experiment": "Test A postemergence, visual injury rating 0-100", "format": "in vivo", "settings": "0 to 100 scale"}, "corn (Zea mays)": {"tested_on": "corn (Zea mays)", "experiment": "Test A postemergence, visual injury rating 0-100", "format": "in vivo", "settings": "0 to 100 scale"}, "[11]": {"tested_on": "pigweed (Amaranthus retroflexus)", "experiment": "Test A postemergence, visual injury rating 0-100", "format": "in vivo", "settings": "0 to 100 scale"}, "[12]": {"tested_on": "ragweed (common ragweed, Ambrosia elatior)", "experiment": "Test A postemergence, visual injury rating 0-100", "format": "in vivo", "settings": "0 to 100 scale"}, "[13]": {"tested_on": "ryegrass, Italian (Italian ryegrass, Lolium multiflorum)", "experiment": "Test A postemergence, visual injury rating 0-100", "format": "in vivo", "settings": "0 to 100 scale"}, "[14]": {"tested_on": "wheat (Triticum aestivum)", "experiment": "Test A postemergence, visual injury rating 0-100", "format": "in vivo", "settings": "0 to 100 scale"}, "[15]": {"tested_on": "barnyardgrass (Echinochloa crus-galli)", "experiment": "Test A postemergence, visual injury rating 0-100", "format": "in vivo", "settings": "0 to 100 scale"}, "[16]": {"tested_on": "ducksalad (Heteranthera limosa)", "experiment": "Test B flooded paddy test, visual rating 0-100", "settings": "Flood, 250 g ai/ha, applied to paddy water, rated after 13 to 15 days"}, "rice (Oryza sativa)": {"tested_on": "rice (Oryza sativa)", "experiment": "Test B flooded paddy test, visual rating 0-100 (0 no effect, 100 complete control)", "settings": "Flood, 250 g ai/ha, applied to paddy water, rated after 13 to 15 days"}, "[17]": {"tested_on": "barnyardgrass (Echinochloa crus-galli)", "experiment": "Test A preemergence, visual injury rating 0-100 (0 no effect, 100 complete control)", "format": "in vivo"}}}
{"compound": "CC1=[N+]([O-])C(C(=O)Nc2cccc(F)c2F)C(c2ccc(Cl)c(C(F)(F)F)c2)C1", "note": "(racemic) [Compound 104]", "values": [{"measurement": "Foxtail, Giant plant response rating (0 to 100 scale)", "setting": "[1]; 125 g ai/ha", "result": 90}, {"measurement": "Foxtail, Giant plant response rating (0 to 100 scale)", "setting": "[1]; 500 g ai/ha", "result": 90}, {"measurement": "Kochia plant response rating (0 to 100 scale)", "setting": "kochia (Kochia scoparia) [2]; 125 g ai/ha", "result": 30}, {"measurement": "Kochia plant response rating (0 to 100 scale)", "setting": "kochia (Kochia scoparia) [2]; 500 g ai/ha", "result": 70}, {"measurement": "Pigweed plant response rating (0 to 100 scale)", "setting": "[3]; 125 g ai/ha", "result": 10}, {"measurement": "Pigweed plant response rating (0 to 100 scale)", "setting": "[3]; 500 g ai/ha", "result": 80}, {"measurement": "Ragweed plant response rating (0 to 100 scale)", "setting": "[4]; 125 g ai/ha", "result": 20}, {"measurement": "Ragweed plant response rating (0 to 100 scale)", "setting": "[4]; 500 g ai/ha", "result": 60}, {"measurement": "Ryegrass, Italian plant response rating (0 to 100 scale)", "setting": "[5]", "result": 90}, {"measurement": "Barnyardgrass plant response rating (0 to 100 scale)", "setting": "[6]", "result": 40}, {"measurement": "Blackgrass plant response rating", "setting": "[7]; 125 g ai/ha", "result": 70}, {"measurement": "Blackgrass plant response rating", "setting": "[7]; 500 g ai/ha", "result": 70}, {"measurement": "Galium plant response rating", "setting": "[8]; 125 g ai/ha", "result": 30}, {"measurement": "Galium plant response rating", "setting": "[8]; 500 g ai/ha", "result": 70}, {"measurement": "Foxtail, Giant plant response rating", "setting": "[9]; 125 g ai/ha", "result": 20}, {"measurement": "Foxtail, Giant plant response rating", "setting": "[9]; 500 g ai/ha", "result": 80}, {"measurement": "Kochia plant response rating", "setting": "kochia (Kochia scoparia) [10]; 125 g ai/ha", "result": 50}, {"measurement": "Kochia plant response rating", "setting": "kochia (Kochia scoparia) [10]; 500 g ai/ha", "result": 70}, {"measurement": "Corn plant response rating", "setting": "corn (Zea mays); 125 g ai/ha", "result": 70}, {"measurement": "Corn plant response rating", "setting": "corn (Zea mays); 500 g ai/ha", "result": 60}, {"measurement": "Pigweed plant response rating", "setting": "[11]; 125 g ai/ha", "result": 30}, {"measurement": "Pigweed plant response rating", "setting": "[11]; 500 g ai/ha", "result": 70}, {"measurement": "Ragweed plant response rating", "setting": "[12]; 125 g ai/ha", "result": 20}, {"measurement": "Ragweed plant response rating", "setting": "[12]; 500 g ai/ha", "result": 70}, {"measurement": "Ryegrass, Italian plant response rating", "setting": "[13]; 125 g ai/ha", "result": 20}, {"measurement": "Ryegrass, Italian plant response rating", "setting": "[13]; 500 g ai/ha", "result": 70}, {"measurement": "Wheat plant response rating", "setting": "[14]; 125 g ai/ha", "result": 10}, {"measurement": "Wheat plant response rating", "setting": "[14]; 500 g ai/ha", "result": 50}, {"measurement": "Barnyardgrass plant response rating", "setting": "[15]; 125 g ai/ha", "result": 60}, {"measurement": "Barnyardgrass plant response rating", "setting": "[15]; 500 g ai/ha", "result": 80}, {"measurement": "Ducksalad plant response rating (0 to 100 scale)", "setting": "[16]", "result": 40}, {"measurement": "Rice plant response rating (0 to 100 scale)", "setting": "rice (Oryza sativa)", "result": 0}, {"measurement": "Barnyardgrass plant response rating (0 to 100 scale)", "setting": "[17]; 125 g ai/ha", "result": 80}, {"measurement": "Barnyardgrass plant response rating (0 to 100 scale)", "setting": "[17]; 500 g ai/ha", "result": 90}]}
{"compound": "CC1=[N+]([O-])C(C(=O)Nc2cccc(F)c2F)C(c2cccc(C3OCCO3)c2)C1", "note": "(racemic) [Compound 105]", "values": [{"measurement": "Foxtail, Giant plant response rating (0 to 100 scale)", "setting": "[1]; 125 g ai/ha", "result": 60}, {"measurement": "Foxtail, Giant plant response rating (0 to 100 scale)", "setting": "[1]; 500 g ai/ha", "result": 90}, {"measurement": "Kochia plant response rating (0 to 100 scale)", "setting": "kochia (Kochia scoparia) [2]; 125 g ai/ha", "result": 0}, {"measurement": "Kochia plant response rating (0 to 100 scale)", "setting": "kochia (Kochia scoparia) [2]; 500 g ai/ha", "result": 60}, {"measurement": "Pigweed plant response rating (0 to 100 scale)", "setting": "[3]; 125 g ai/ha", "result": 0}, {"measurement": "Pigweed plant response rating (0 to 100 scale)", "setting": "[3]; 500 g ai/ha", "result": 0}, {"measurement": "Ragweed plant response rating (0 to 100 scale)", "setting": "[4]; 125 g ai/ha", "result": 0}, {"measurement": "Ragweed plant response rating (0 to 100 scale)", "setting": "[4]; 500 g ai/ha", "result": 0}, {"measurement": "Ryegrass, Italian plant response rating (0 to 100 scale)", "setting": "[5]", "result": 80}, {"measurement": "Barnyardgrass plant response rating (0 to 100 scale)", "setting": "[6]", "result": 0}, {"measurement": "Blackgrass plant response rating", "setting": "[7]; 125 g ai/ha", "result": 20}, {"measurement": "Blackgrass plant response rating", "setting": "[7]; 500 g ai/ha", "result": 60}, {"measurement": "Galium plant response rating", "setting": "[8]; 125 g ai/ha", "result": 30}, {"measurement": "Galium plant response rating", "setting": "[8]; 500 g ai/ha", "result": 40}, {"measurement": "Foxtail, Giant plant response rating", "setting": "[9]; 125 g ai/ha", "result": 10}, {"measurement": "Foxtail, Giant plant response rating", "setting": "[9]; 500 g ai/ha", "result": 30}, {"measurement": "Kochia plant response rating", "setting": "kochia (Kochia scoparia) [10]; 125 g ai/ha", "result": 0}, {"measurement": "Kochia plant response rating", "setting": "kochia (Kochia scoparia) [10]; 500 g ai/ha", "result": 0}, {"measurement": "Corn plant response rating", "setting": "corn (Zea mays); 125 g ai/ha", "result": 0}, {"measurement": "Corn plant response rating", "setting": "corn (Zea mays); 500 g ai/ha", "result": 40}, {"measurement": "Pigweed plant response rating", "setting": "[11]; 125 g ai/ha", "result": 0}, {"measurement": "Pigweed plant response rating", "setting": "[11]; 500 g ai/ha", "result": 0}, {"measurement": "Ragweed plant response rating", "setting": "[12]; 125 g ai/ha", "result": 0}, {"measurement": "Ragweed plant response rating", "setting": "[12]; 500 g ai/ha", "result": 40}, {"measurement": "Ryegrass, Italian plant response rating", "setting": "[13]; 125 g ai/ha", "result": 0}, {"measurement": "Ryegrass, Italian plant response rating", "setting": "[13]; 500 g ai/ha", "result": 40}, {"measurement": "Wheat plant response rating", "setting": "[14]; 125 g ai/ha", "result": 0}, {"measurement": "Wheat plant response rating", "setting": "[14]; 500 g ai/ha", "result": 30}, {"measurement": "Barnyardgrass plant response rating", "setting": "[15]; 125 g ai/ha", "result": 30}, {"measurement": "Barnyardgrass plant response rating", "setting": "[15]; 500 g ai/ha", "result": 80}, {"measurement": "Ducksalad plant response rating (0 to 100 scale)", "setting": "[16]", "result": 0}, {"measurement": "Rice plant response rating (0 to 100 scale)", "setting": "rice (Oryza sativa)", "result": 0}, {"measurement": "Barnyardgrass plant response rating (0 to 100 scale)", "setting": "[17]; 125 g ai/ha", "result": 30}, {"measurement": "Barnyardgrass plant response rating (0 to 100 scale)", "setting": "[17]; 500 g ai/ha", "result": 90}]}
